# According to article PMC5506005, “A novel protein kinase inhibitor IMB-YH-8 with anti-tuberculosis activity” (Scientific Reports, 2017):
# Where two headings read alike, the source gives them in different places.
# How the values were obtained:
# [1] = system: intracellular M. tuberculosis H37Rv; experiment: Intracellular activity assay in infected THP-1 cells (CFU); type: cell-based; settings: 3 days; for Log10CFU: infected THP-1 cells, mean ± SD, untreated 5.03 ± 0.12
# PknH = PknH (Mycobacterium tuberculosis, UniProt P9WI71); experiment: In vitro protein kinase assay (Kinase Glo), auto-phosphorylation of PknH; type: biochemical
# in vitro = settings: human
# PknB [2] = biological target: T1, PknB (Mycobacterium tuberculosis, UniProt P9WI81); experiment: Surface plasmon resonance (BIAcore) binding to PknB; design: species or system M. tuberculosis; settings: single cycle kinetics, 1:1 binding model, 25 °C, read-out: Kd for binding to PknB (SPR)
# T1 sequence (P9WI81 11-274 limits assumed): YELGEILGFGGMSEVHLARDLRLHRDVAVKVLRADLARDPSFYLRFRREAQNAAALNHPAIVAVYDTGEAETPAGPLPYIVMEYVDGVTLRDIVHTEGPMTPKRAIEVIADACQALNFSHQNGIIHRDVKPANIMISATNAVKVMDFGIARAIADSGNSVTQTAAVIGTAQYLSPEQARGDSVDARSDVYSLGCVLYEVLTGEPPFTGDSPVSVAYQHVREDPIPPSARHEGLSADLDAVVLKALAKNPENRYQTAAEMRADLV
# PknA = biological target: T2, PknA (Mycobacterium tuberculosis, UniProt P9WI83); experiment: In vitro protein kinase assay (Kinase Glo), auto-phosphorylation of PknA; type: biochemical, M. tuberculosis
# T2 sequence (P9WI83 1-431): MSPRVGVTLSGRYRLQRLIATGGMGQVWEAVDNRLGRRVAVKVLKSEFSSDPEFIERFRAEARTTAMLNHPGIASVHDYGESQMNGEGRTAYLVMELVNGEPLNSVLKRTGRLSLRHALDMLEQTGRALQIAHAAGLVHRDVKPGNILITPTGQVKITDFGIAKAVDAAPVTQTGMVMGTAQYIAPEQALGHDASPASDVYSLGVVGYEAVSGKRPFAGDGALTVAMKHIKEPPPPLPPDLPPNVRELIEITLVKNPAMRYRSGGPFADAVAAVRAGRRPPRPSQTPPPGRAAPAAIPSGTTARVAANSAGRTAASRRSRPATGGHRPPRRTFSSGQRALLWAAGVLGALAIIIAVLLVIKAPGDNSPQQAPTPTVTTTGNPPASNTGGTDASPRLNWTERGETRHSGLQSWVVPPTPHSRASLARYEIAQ
# THP-1 cells = settings: calculated as the CC50/MIC (THP-1 / H37Rv)
# [3] = system: clinical isolates of M. tuberculosis; experiment: microbe, parasite or virus in culture; type: cell-based; settings: Mycobacterium tuberculosis, clinical isolate 31251, sensitive
# PknF = PknF (Mycobacterium tuberculosis, UniProt P9WI75); experiment: In vitro protein kinase assay (Kinase Glo), auto-phosphorylation of PknF; type: biochemical, M. tuberculosis
# human kinase Akt1 = human kinase Akt1 (Homo sapiens, UniProt P31749); experiment: In vitro protein kinase assay (Kinase Glo), auto-phosphorylation of Akt1; type: biochemical
# Mycobacterium smegmatis = system: Mycobacterium smegmatis; design: method as in earlier work; settings: previous high throughput screening study; cited from earlier work
# Mycobacterium marinum = system: Mycobacterium marinum; design: method as in earlier work; settings: previous high throughput screening study; cited from earlier work
# [4] = system: M. tuberculosis H37Rv gene transcripts (PknB/SigH regulatory pathways); type: cell-based; settings: 2.5 μg/ml, 4 h; for Real-time reverse transcription PCR Normalized ΔCt (mean ± SD): normalized to sigA mRNA
# M. tuberculosis H37Rv [5] = experiment: Scanning electron microscopy of cell morphology; type: cell-based; settings: 1 μg/ml for 5 days, SEM
# Protocol: To determine whether IMB-YH-8 affects the morphology of M. tuberculosis H37Rv, scanning electron microscopy (SEM) was performed. H37Rv was grown to early log phase (optical density at 600 nm, ~0.2). Then 1 μg/ml IMB-YH-8 was added to treat cells, followed by incubation at 37 °C for 5 days. Cells were harvested by low-speed centrifugation and washed in 0.1 M phosphate buffer (pH 7.4). The cells were then fixed in 0.1 M phosphate buffer (pH 7.4) containing 2.5% glutaraldehyde and 0.5% paraformaldehyde. The samples were submitted to the Instrument Center of Institute of Microbiology, Chinese Academy of Sciences for further analysis. Observations were carried out using a SEM (SU8010; Hitachi, Tokyo, Japan). Untreated H37Rv were also processed as control.
# PknB [6] = biological target: PknB (Mycobacterium tuberculosis, UniProt P9WI81); experiment: biochemical; type: binding, M. tuberculosis
# Target sequence in this assay (P9WI81 1-279 limits assumed): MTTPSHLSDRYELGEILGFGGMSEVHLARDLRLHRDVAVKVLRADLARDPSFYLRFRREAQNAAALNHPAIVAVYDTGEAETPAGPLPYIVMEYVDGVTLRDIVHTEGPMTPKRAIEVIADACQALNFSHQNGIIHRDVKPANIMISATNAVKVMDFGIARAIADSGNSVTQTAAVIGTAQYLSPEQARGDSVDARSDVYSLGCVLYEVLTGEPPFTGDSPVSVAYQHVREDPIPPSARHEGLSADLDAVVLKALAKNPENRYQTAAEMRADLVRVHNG
# PknB [7] = biological target: T1, PknB; experiment: Phosphorylation of GarA by PknB, Phos-tag SDS-PAGE; type: biochemical, M. tuberculosis; settings: non-phosphorylated GarA increased in a dose-dependent manner
# Protocol: In vitro phosphorylation of GarA (5 μM) by PknB (3 μM) was carried out in 50 μl reaction mixture (25 mM Tris-HCl (pH = 7.4), 5 mM MgCl2, 2 mM MnCl2). The reaction was initiated with the additional of 100 μM ATP and incubated at 37 °C for 3 hours. The reaction was terminated with the addition of SDS-PAGE sample buffer and heating the mixture at 100 °C for 5 min. The reaction mixtures were analyzed by 12% SDS-PAGE with or without Phos-tag SDS-PAGE to differentiate the phosphorylated and non-phosphorylated GarA. Phos-tag SDS-PAGE was performed with gel containing 20 μM Phos-tag acrylamide (Wako Pure Chemical Industries, Japan) and 100 µM MnCl2 according to the manufacturer’s instructions. Electrophoresis was performed at 4 °C in Tris-glycine SDS-PAGE running buffer at 30 mA for 2 h. Images were adjusted for contrast and brightness using Bio-Rad image lab software version 2.01.
# [8] = cited from earlier work
# M. tuberculosis H37Rv [9] = experiment: MIC by microplate Alamar blue assay (MABA), H37Rv; type: cell-based; settings: Mycobacterium tuberculosis
# PknG = PknG (Mycobacterium tuberculosis, UniProt P9WI73); experiment: In vitro protein kinase assay (Kinase Glo), auto-phosphorylation of PknG; type: biochemical, M. tuberculosis
# [10] = system: M. tuberculosis gene transcripts (PknB/SigH regulatory pathways); experiment: Gene expression by microarray; type: cell-based; settings: 4 h; for fold induction at 2.5 µg/mL: Mycobacterium tuberculosis; for Regulation: 2.5 μg/ml
# Protocol: The drug-treated (2.5 μg/ml IMB-YH-8), together with control (DMSO) mycobacterial cultures, were incubated at 37 °C for 4 h. Total RNAs were isolated by RiboPure^TM-Bacteria Kit (Life Technology, AM1925) according to the manufacturer’s instructions. The quantity and quality of each RNA sample was determined using NanoDrop ND-2000 spectrophotometer (Thermo Scientific, Wilmington, DE) and Agilent 2100 Bioanalyzer (Agilent Technologies, Santa Clara, CA).
# The qualified RNA samples were labeled and hybridized on Agilent 4 × 44 K Custom design Gene Expression Microarray according to manufacturer protocol (Agilent, Santa Clara, CA). In brief, 100 ng of each RNA sample was amplified to cRNA and labeled with Cy-3 using Agilent Low Input Quick Amp Labeling Kit. The labeled samples were hybridized for 16 hours at 10 rotations per minute. After hybridization, the arrays were washed and scanned by Agilent scanner and then the image was analyzed by Agilent Feature Extraction v11.5. Data obtained from Feature Extraction were imported to GeneSpring GX version 13.1 (Agilent Technologies, Santa Clara, CA) for 75th percentile shift and baseline to median of all samples normalization.
# PknB [11] = biological target: T1, PknB; experiment: In vitro protein kinase assay (Kinase Glo), auto-phosphorylation of PknB; type: biochemical, M. tuberculosis; settings: non-radioactive Kinase Glo assay, 100 μM ATP
# Sequence of PknF (P9WI75 whole entry): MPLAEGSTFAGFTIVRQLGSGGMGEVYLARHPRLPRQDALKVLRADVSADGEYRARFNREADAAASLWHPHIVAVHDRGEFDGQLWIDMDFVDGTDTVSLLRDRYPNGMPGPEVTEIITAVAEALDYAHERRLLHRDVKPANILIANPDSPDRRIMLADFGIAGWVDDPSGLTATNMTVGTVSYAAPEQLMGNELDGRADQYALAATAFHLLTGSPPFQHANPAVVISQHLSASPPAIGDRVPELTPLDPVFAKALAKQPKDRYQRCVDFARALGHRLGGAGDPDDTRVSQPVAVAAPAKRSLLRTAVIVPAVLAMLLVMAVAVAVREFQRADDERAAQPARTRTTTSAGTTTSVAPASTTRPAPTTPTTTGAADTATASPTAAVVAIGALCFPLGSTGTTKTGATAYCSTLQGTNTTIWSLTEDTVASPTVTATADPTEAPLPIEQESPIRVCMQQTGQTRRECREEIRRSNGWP
# Sequence of PknG (P9WI73 whole entry): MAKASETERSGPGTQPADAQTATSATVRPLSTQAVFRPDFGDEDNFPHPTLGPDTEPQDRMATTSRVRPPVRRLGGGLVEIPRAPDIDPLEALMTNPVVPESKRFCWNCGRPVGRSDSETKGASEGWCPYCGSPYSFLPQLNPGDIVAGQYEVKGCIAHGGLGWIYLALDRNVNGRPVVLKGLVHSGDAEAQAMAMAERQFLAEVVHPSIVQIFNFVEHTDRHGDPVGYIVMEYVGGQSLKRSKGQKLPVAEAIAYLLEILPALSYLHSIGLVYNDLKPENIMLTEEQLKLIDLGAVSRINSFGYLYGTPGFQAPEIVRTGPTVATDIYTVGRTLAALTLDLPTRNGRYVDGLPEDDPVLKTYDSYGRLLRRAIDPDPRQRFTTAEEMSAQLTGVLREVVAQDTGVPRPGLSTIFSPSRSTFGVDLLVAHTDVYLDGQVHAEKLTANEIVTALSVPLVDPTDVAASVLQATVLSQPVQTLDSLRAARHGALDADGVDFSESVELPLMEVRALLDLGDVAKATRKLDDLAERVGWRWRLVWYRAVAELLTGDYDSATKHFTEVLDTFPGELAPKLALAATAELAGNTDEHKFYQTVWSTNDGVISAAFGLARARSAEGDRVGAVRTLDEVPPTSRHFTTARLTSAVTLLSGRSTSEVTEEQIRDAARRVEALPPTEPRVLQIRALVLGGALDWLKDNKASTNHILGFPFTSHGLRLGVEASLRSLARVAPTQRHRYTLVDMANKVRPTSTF
# Sequence of human kinase Akt1 (P31749 whole entry): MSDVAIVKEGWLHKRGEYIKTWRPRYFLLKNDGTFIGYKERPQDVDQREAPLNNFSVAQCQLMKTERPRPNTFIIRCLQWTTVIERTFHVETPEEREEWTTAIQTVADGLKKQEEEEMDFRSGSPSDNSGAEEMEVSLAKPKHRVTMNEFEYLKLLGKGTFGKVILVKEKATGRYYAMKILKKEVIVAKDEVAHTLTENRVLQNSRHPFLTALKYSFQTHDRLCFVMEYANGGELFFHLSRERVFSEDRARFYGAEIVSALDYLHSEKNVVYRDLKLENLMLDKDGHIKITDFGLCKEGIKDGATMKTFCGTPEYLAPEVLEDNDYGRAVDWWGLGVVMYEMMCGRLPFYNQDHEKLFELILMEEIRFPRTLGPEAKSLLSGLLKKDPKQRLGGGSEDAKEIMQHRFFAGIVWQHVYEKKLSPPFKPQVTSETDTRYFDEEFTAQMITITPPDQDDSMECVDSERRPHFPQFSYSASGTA
# Sequence of PknH (P9WI71 whole entry): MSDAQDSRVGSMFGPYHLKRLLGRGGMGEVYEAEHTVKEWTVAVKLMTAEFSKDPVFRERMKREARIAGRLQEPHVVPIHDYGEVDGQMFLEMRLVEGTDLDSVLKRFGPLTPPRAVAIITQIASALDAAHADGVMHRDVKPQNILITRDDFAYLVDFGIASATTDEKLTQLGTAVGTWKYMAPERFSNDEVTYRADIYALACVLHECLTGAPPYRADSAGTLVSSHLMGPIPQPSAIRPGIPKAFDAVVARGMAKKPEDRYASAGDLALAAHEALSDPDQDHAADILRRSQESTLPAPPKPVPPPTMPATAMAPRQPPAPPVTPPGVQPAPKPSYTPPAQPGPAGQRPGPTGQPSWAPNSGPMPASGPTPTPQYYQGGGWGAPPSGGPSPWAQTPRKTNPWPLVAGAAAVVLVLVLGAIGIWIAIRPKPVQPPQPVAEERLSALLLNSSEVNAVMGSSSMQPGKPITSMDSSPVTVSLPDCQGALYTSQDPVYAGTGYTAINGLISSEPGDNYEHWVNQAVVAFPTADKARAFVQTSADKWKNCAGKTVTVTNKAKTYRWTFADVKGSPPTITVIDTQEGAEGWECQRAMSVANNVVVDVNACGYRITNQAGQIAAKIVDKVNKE
smiles,measurement,setting,value
"NNC(=O)c1ccncc1 [INH, isoniazid, reference compound]",Log10CFU,[1]; 0.5 μg/ml,3.24 ± 0.05
same,Log10CFU,[1]; 1 μg/ml,3.14 ± 0.06
same,Log10CFU,[1]; 2 μg/ml,2.57 ± 0.14
COC(=O)/C=C/C(=O)c1ccc(OC)cc1 [IMB-YH-8],IC50,PknH,> 640 µM
same,CC50 at 48 h,in vitro,7.61 µg/mL
same,Kd,PknB [2],25.3 µM
same,IC50,PknA,44.3 µM
same,"SI, selectivity index",THP-1 cells,30.4
same,MIC,[3],0.25 µg/mL
same,IC50,PknF,503 µM
same,IC50,human kinase Akt1,> 640 µM
same,inhibition of Mycobacterium smegmatis,Mycobacterium smegmatis,inhibited
same,inhibition of Mycobacterium marinum,Mycobacterium marinum,inhibited
same,Real-time reverse transcription PCR Normalized ΔCt (mean ± SD),[4]; gene Rv2466c,6.325 ± 2.51
same,Real-time reverse transcription PCR Mean fold change (2^ΔΔCt Value),[4]; gene rshA (Rv3221A),264.11
same,Real-time reverse transcription PCR Normalized ΔCt (mean ± SD),[4]; gene rshA (Rv3221A),8.045 ± 0.59
same,Real-time reverse transcription PCR Mean fold change (2^ΔΔCt Value),[4]; gene sigH (Rv3223c),5.88
same,Real-time reverse transcription PCR Normalized ΔCt (mean ± SD),[4]; gene sigH (Rv3223c),2.555 ± 0.11
same,Real-time reverse transcription PCR Mean fold change (2^ΔΔCt Value),[4]; gene trxB2 (Rv3913),7.67
same,Real-time reverse transcription PCR Normalized ΔCt (mean ± SD),[4]; gene trxB2 (Rv3913),2.940 ± 0.07
same,Real-time reverse transcription PCR Mean fold change (2^ΔΔCt Value),[4]; gene trxC (Rv3914),5.48
same,Real-time reverse transcription PCR Normalized ΔCt (mean ± SD),[4]; gene trxC (Rv3914),2.455 ± 0.06
same,proportion of ruptured cells,M. tuberculosis H37Rv [5],61.5%
same,Kd,PknB [6],13.5 µM
same,ΔG of binding to PknB,"PknB [6]; ITC, 25 °C",-6.64 kcal/mol
same,ΔH of binding to PknB,"PknB [6]; ITC, 25 °C",-5.7 kcal/mol
same,−TΔS of binding to PknB,"PknB [6]; ITC, 25 °C",-0.94 kcal/mol
same,PknB-catalyzed phosphorylation of GarA,PknB [7],inhibited
same,time until serum concentrations fall below the therapeutic range,[8]; oral delivery of 200 mg/kg,less than 1 hour
same,serum Cmax,"[8]; rat, in vivo, po, 200 mg/kg",sub-microgram/ml
same,MIC,M. tuberculosis H37Rv [9],0.25 µg/mL
same,MIC,M. tuberculosis H37Rv [9]; converted from 0.25 μg/ml,1.14 µM
same,IC50,PknG,349 µM
same,reduction in CFU compared to untreated control,[1]; 0.5 µg/ml,0.18 log10
same,Log10CFU,[1]; 0.5 μg/ml,4.85 ± 0.04
same,reduction in CFU compared to untreated control,[1]; 1 µg/ml,0.62 log10
same,Log10CFU,[1]; 1 μg/ml,4.41 ± 0.12
same,reduction in CFU compared to untreated control,[1]; 2 µg/ml,1.11 log10
same,Log10CFU,[1]; 2 μg/ml,3.92 ± 0.11
same,fold induction at 2.5 µg/mL,"[10]; read-out: Fold induction in microarray (mean ± SD), gene Rv2466c, 2.5 μg/ml",6.86 ± 1.93
same,fold induction at 2.5 µg/mL,"[10]; read-out: Fold induction in microarray (mean ± SD), gene rshA (Rv3221A), 2.5 μg/ml",6.07 ± 0.33
same,fold induction at 2.5 µg/mL,"[10]; read-out: Fold induction in microarray (mean ± SD), gene sigH (Rv3223c), 2.5 μg/ml",2.92 ± 0.09
same,fold induction at 2.5 µg/mL,"[10]; read-out: Fold induction in microarray (mean ± SD), gene trxB2 (Rv3913), 2.5 μg/ml",6.9 ± 0.75
same,fold induction at 2.5 µg/mL,"[10]; read-out: Fold induction in microarray (mean ± SD), gene trxC (Rv3914), 2.5 μg/ml",8.03 ± 0.33
same,Regulation,[10]; gene Rv2466c,Up
same,Regulation,[10]; gene rshA (Rv3221A),Up
same,Regulation,[10]; gene sigH (Rv3223c),Up
same,Regulation,[10]; gene trxB2 (Rv3913),Up
same,Regulation,[10]; gene trxC (Rv3914),Up
same,IC50,PknB [11],20.2 µM
